Laboratory results reported in patent publication US20220259593A1, “CONTROL OF MAMMALIAN GENE DOSAGE USING CRISPR” (The Regents of the University of California, priority 2019, published 2022).

Tested on: K562 CRISPRi cells
Assay: Perturb-seq pooled growth measurement (sgRNA counts, growth phenotype γ, relative activity)
Type: cell-based, human
Settings: sequencing read counts; for Perturb-seq pooled growth sgRNA counts, d5: 5 days of growth (day seven after transduction); for Perturb-seq pooled growth sgRNA counts, d10: 10 days of growth (day twelve after transduction); for Perturb-seq pooled growth sgRNA counts, T0: T0 = day two after transduction
Source text: Finally, we sought to use intermediate-activity sgRNAs to explore relationships between expression levels of various genes and the resulting cellular phenotypes. To simultaneously measure gene expression levels and obtain rich phenotypes for a variety of sgRNA series, we used Perturb-seq, an experimental strategy that enables matched capture of the transcriptome and the identity of an expressed sgRNA for each individual cell in pools of cells (27, 31-33) (FIG. 12A). […] In addition to the single-cell transcriptomes, we measured bulk growth phenotypes conferred by sgRNAs in these cells.
To measure the growth rate defects conferred by each sgRNA for comparison with the transcriptional phenotypes, samples of 500,000 transduced cells were taken from the same transduced cell population used in the Perturb-seq experiment on days two, seven, and twelve after transduction. Genomic DNA was extracted using the Nucleospin Blood kit (Macherey-Nagel) and sgRNA amplicons were prepared as described previously and above (19), albeit with no genomic DNA digestion or gel purification, and sequenced on HiSeq 4000 as described above for the other screens. Growth phenotypes were calculated by comparing normalized sgRNA abundances at day seven and twelve to those at day two, as described above. […] Relative sgRNA activities measured at day seven (five days of growth) were used to assign sgRNA activities in further analysis.

| Substance | Perturb-seq pooled growth sgRNA counts, d5 | Perturb-seq pooled growth sgRNA counts, d10 | Perturb-seq pooled growth sgRNA counts, T0 |
| --- | --- | --- | --- |
| BCR_+_23523092.23-P1P2_05: sgRNA targeting BCR, GCGCGCGGCGCCCGTCTCAG, SEQ ID NO: 128 (listed as DNA, chemistry not fully specified) | 12165 | 15537 | 13439 |
| BCR_+_23523092.23-P1P2_07: sgRNA targeting BCR, GCGCGCGGGGCTCGTCTCAG, SEQ ID NO: 126 (listed as DNA, chemistry not fully specified) | 1744 | 2183 | 8081 |
| BCR_+_23523092.23-P1P2_13: sgRNA targeting BCR, GCGCGCGGGGCCCATCTCAG, SEQ ID NO: 130 (listed as DNA, chemistry not fully specified) | 5668 | 7063 | 4304 |
| BCR_+_23523092.23-P1P2_15: sgRNA targeting BCR, GCGCGCGGGGCCCGTCGCAG, SEQ ID NO: 129 (listed as DNA, chemistry not fully specified) | 6829 | 8085 | 5377 |
| CAD_+_27440280.23-P1P2_00: sgRNA targeting CAD, GGCTGGAGAGAAGCCGGGCG, SEQ ID NO: 20 (listed as DNA, chemistry not fully specified) | 2464 | 785 | 8671 |
| CAD_+_27440280.23-P1P2_03: sgRNA targeting CAD, GGCTGGTGAGAAGCCGGGCG, SEQ ID NO: 102 (listed as DNA, chemistry not fully specified) | 2087 | 907 | 7290 |
| CAD_+_27440280.23-P1P2_06: sgRNA targeting CAD, GGCTGGAGAGTAGCCGGGCG, SEQ ID NO: 104 (listed as DNA, chemistry not fully specified) | 4967 | 4365 | 6199 |
| CAD_+_27440280.23-P1P2_07: sgRNA targeting CAD, GGCTGGAGCGAAGCCGGGCG, SEQ ID NO: 103 (listed as DNA, chemistry not fully specified) | 6008 | 4019 | 13241 |
| CAD_+_27440280.23-P1P2_13: sgRNA targeting CAD, GGCTGGAGAGAAGCCTGGCG, SEQ ID NO: 105 (listed as DNA, chemistry not fully specified) | 17097 | 19130 | 11874 |
| CDC23_−_137548987.23-P1P2_00: sgRNA targeting CDC23, GACAGCCACCGGGACCATGG, SEQ ID NO: 18 (listed as DNA, chemistry not fully specified) | 757 | 854 | 8182 |
| CDC23_−_137548987.23-P1P2_02: sgRNA targeting CDC23, GACAGCTACCGGGACCATGG, SEQ ID NO: 98 (listed as DNA, chemistry not fully specified) | 832 | 1192 | 7014 |
| CDC23_−_137548987.23-P1P2_04: sgRNA targeting CDC23, GACAGCCAACGGGACCATGG, SEQ ID NO: 100 (listed as DNA, chemistry not fully specified) | 1646 | 1646 | 8019 |
| CDC23_−_137548987.23-P1P2_08: sgRNA targeting CDC23, GACAGCCATCGGGACCATGG, SEQ ID NO: 99 (listed as DNA, chemistry not fully specified) | 1531 | 1710 | 8986 |
| CDC23_−_137548987.23-P1P2_11: sgRNA targeting CDC23, GACAGCCACCGGGACCACGG, SEQ ID NO: 101 (listed as DNA, chemistry not fully specified) | 14320 | 16682 | 12707 |
| COX11_+_53045977.23-P1P2_00: sgRNA targeting COX11, GGCTCTGGCGTCCTGGATGG, SEQ ID NO: 141 (listed as DNA, chemistry not fully specified) | 11785 | 6198 | 8084 |
| COX11_+_53045977.23-P1P2_03: sgRNA targeting COX11, GGCTCTGTCGTCCTGGATGG, SEQ ID NO: 142 (listed as DNA, chemistry not fully specified) | 16852 | 9184 | 11251 |
| COX11_+_53045977.23-P1P2_04: sgRNA targeting COX11, GGCTCTGGCGCCCTGGATGG, SEQ ID NO: 143 (listed as DNA, chemistry not fully specified) | 8343 | 5047 | 5234 |
| COX11_+_53045977.23-P1P2_05: sgRNA targeting COX11, GGCTCTGGCGTCTTGGATGG, SEQ ID NO: 144 (listed as DNA, chemistry not fully specified) | 10766 | 11496 | 5205 |
| COX11_+_53045977.23-P1P2_10: sgRNA targeting COX11, GGCTCTGGCGTCCCGGATGG, SEQ ID NO: 145 (listed as DNA, chemistry not fully specified) | 8887 | 11271 | 5206 |
| DBR1_+_137893744.23-P1P2_00: sgRNA targeting DBR1, GTTTGCAGGAGTCTACACCC, SEQ ID NO: 78 (listed as DNA, chemistry not fully specified) | 9171 | 3583 | 13446 |
| DBR1_+_137893744.23-P1P2_01: sgRNA targeting DBR1, GATTGCAGGAGTCTACACCC, SEQ ID NO: 79 (listed as DNA, chemistry not fully specified) | 5512 | 1824 | 9446 |
| DBR1_+_137893744.23-P1P2_05: sgRNA targeting DBR1, GTTTGCAGGAGTGTACACCC, SEQ ID NO: 81 (listed as DNA, chemistry not fully specified) | 6705 | 4748 | 6569 |
| DBR1_+_137893744.23-P1P2_07: sgRNA targeting DBR1, GTTTGCAGGGGTCTACACCC, SEQ ID NO: 80 (listed as DNA, chemistry not fully specified) | 4894 | 2550 | 8500 |
| DBR1_+_137893744.23-P1P2_08: sgRNA targeting DBR1, GTTTGCAGTAGTCTACACCC, SEQ ID NO: 82 (listed as DNA, chemistry not fully specified) | 11651 | 15989 | 5326 |
| DUT_+_48624411.23-P1P2_00: sgRNA targeting DUT, GCGAGCGAGGAGACCACCGG, SEQ ID NO: 110 (listed as DNA, chemistry not fully specified) | 3755 | 1570 | 14025 |
| DUT_+_48624411.23-P1P2_01: sgRNA targeting DUT, GCCAGCGAGGAGACCACCGG, SEQ ID NO: 111 (listed as DNA, chemistry not fully specified) | 6764 | 3576 | 25227 |
| DUT_+_48624411.23-P1P2_07: sgRNA targeting DUT, GCGAGCGAGGAGCCCACCGG, SEQ ID NO: 113 (listed as DNA, chemistry not fully specified) | 1509 | 1157 | 4601 |
| DUT_+_48624411.23-P1P2_08: sgRNA targeting DUT, GCGAGCGAGGAGGCCACCGG, SEQ ID NO: 112 (listed as DNA, chemistry not fully specified) | 4351 | 2392 | 15356 |
